Experiments:
Assay type in all cases: functional
HCT-15 = assay: Growth inhibition of Homo sapiens (human) HCT15 cells at 10 uM after 48 hr by SRB assay; settings: HCT-15, 48 h, read-out: GI
PA-1 = assay: Growth inhibition of Homo sapiens (human) PA1 cells at 10 uM after 48 hr by SRB assay; settings: PA-1, 48 h, read-out: GI
Rattus norvegicus = assay: Anti-inflammatory activity in Charles Foster albino Rattus norvegicus (rat) assessed as inhibition of carrageenan-induced paw edema at 50 mg/kg, po […] measured up to 3 hr relative to control
NCI-H522 = assay: Growth inhibition of Homo sapiens (human) NCI-H522 cells at 10 uM after 48 hr by SRB assay; settings: NCI-H522, 48 h, read-out: GI
HepG2 = assay: Growth inhibition of Homo sapiens (human) HepG2 cells at 10 uM after 48 hr by SRB assay; settings: HepG2, 48 h, read-out: GI
T47D = assay: Growth inhibition of Homo sapiens (human) T47D cells at 10 uM after 48 hr by SRB assay; settings: read-out: GI

SMILES: COc1ccc(OC)c(C2CC(c3ccccn3)=NN2)c1 (centres undefined)
- inhibition of growth at 10 µM (HCT-15): 10%
- inhibition of growth at 10 µM (PA-1): 25%
- inhibition in vivo at 50 mg/kg (Rattus norvegicus): 15%
- inhibition of growth at 10 µM (NCI-H522): 28%
- inhibition of growth at 10 µM (HepG2): 23%
- inhibition of growth at 10 µM (T47D): 26%

SMILES: CN(C)c1ccc(C2CC(c3ccncc3)=NN2c2ccccc2)cc1 (centres undefined)
- inhibition of growth at 10 µM (HCT-15): 6%
- inhibition of growth at 10 µM (PA-1): 24%
- inhibition in vivo at 50 mg/kg (Rattus norvegicus): 32%
- inhibition of growth at 10 µM (NCI-H522): 32%
- inhibition of growth at 10 µM (HepG2): 35%
- inhibition of growth at 10 µM (T47D): 7%

SMILES: COc1ccc(OC)c(-c2nc(-c3ccccn3)no2)c1
- inhibition of growth at 10 µM (HCT-15): 5%
- inhibition of growth at 10 µM (PA-1): 25%
- inhibition in vivo at 50 mg/kg (Rattus norvegicus): 28%
- inhibition of growth at 10 µM (NCI-H522): 23%
- inhibition of growth at 10 µM (HepG2): 33%
- inhibition of growth at 10 µM (T47D): 37%

SMILES: COc1ccc(OC)c(-c2nc(-c3ccncc3)no2)c1
- inhibition of growth at 10 µM (HCT-15): 2%
- inhibition of growth at 10 µM (PA-1): 19%
- inhibition in vivo at 50 mg/kg (Rattus norvegicus): 35%
- inhibition of growth at 10 µM (NCI-H522): 10%
- inhibition of growth at 10 µM (HepG2): 27%
- inhibition of growth at 10 µM (T47D): 25%

SMILES: COc1ccc(OC)c(-c2nc(-c3cnccn3)no2)c1
- inhibition of growth at 10 µM (HCT-15): 7%
- inhibition of growth at 10 µM (PA-1): 26%
- inhibition in vivo at 50 mg/kg (Rattus norvegicus): 11%
- inhibition of growth at 10 µM (NCI-H522): 23%
- inhibition of growth at 10 µM (HepG2): 17%
- inhibition of growth at 10 µM (T47D): 41%

SMILES: COc1cc(-c2nc(-c3ccccn3)no2)ccc1O
- inhibition of growth at 10 µM (HCT-15): 3%
- inhibition of growth at 10 µM (PA-1): 30%
- inhibition in vivo at 50 mg/kg (Rattus norvegicus): 24%
- inhibition of growth at 10 µM (NCI-H522): 48%
- inhibition of growth at 10 µM (HepG2): 39%
- inhibition of growth at 10 µM (T47D): 33%

SMILES: COc1cc(-c2nc(-c3ccncc3)no2)ccc1O
- inhibition of growth at 10 µM (HCT-15): 5%
- inhibition of growth at 10 µM (PA-1): 32%
- inhibition in vivo at 50 mg/kg (Rattus norvegicus): 14%
- inhibition of growth at 10 µM (NCI-H522): 25%
- inhibition of growth at 10 µM (HepG2): 13%
- inhibition of growth at 10 µM (T47D): 34%

SMILES: COc1cc(-c2nc(-c3cnccn3)no2)ccc1O
- inhibition of growth at 10 µM (HCT-15): 1%
- inhibition of growth at 10 µM (PA-1): 20%
- inhibition in vivo at 50 mg/kg (Rattus norvegicus): 26%
- inhibition of growth at 10 µM (NCI-H522): 20%
- inhibition of growth at 10 µM (HepG2): 20%
- inhibition of growth at 10 µM (T47D): 35%

SMILES: COc1ccc(OC)c(C2CC(c3cccnc3)=NN2)c1 (centres undefined)
- inhibition of growth at 10 µM (HCT-15): 4%
- inhibition of growth at 10 µM (PA-1): 31%
- inhibition in vivo at 50 mg/kg (Rattus norvegicus): 15%
- inhibition of growth at 10 µM (NCI-H522): 40%
- inhibition of growth at 10 µM (HepG2): 34%
- inhibition of growth at 10 µM (T47D): 13%

SMILES: COc1ccc(OC)c(C2CC(c3ccncc3)=NN2)c1 (centres undefined)
- inhibition of growth at 10 µM (HCT-15): 28%
- inhibition of growth at 10 µM (PA-1): 24%
- inhibition in vivo at 50 mg/kg (Rattus norvegicus): 13%
- inhibition of growth at 10 µM (NCI-H522): 24%
- inhibition of growth at 10 µM (HepG2): 34%
- inhibition of growth at 10 µM (T47D): 19%

SMILES: CN(C)c1ccc(C2CC(c3ccccn3)=NN2)cc1 (centres undefined)
- inhibition of growth at 10 µM (HCT-15): 5%
- inhibition of growth at 10 µM (PA-1): 21%
- inhibition in vivo at 50 mg/kg (Rattus norvegicus): 18%
- inhibition of growth at 10 µM (NCI-H522): 34%
- inhibition of growth at 10 µM (HepG2): 29%
- inhibition of growth at 10 µM (T47D): 3%

SMILES: CN(C)c1ccc(C2CC(c3cccnc3)=NN2)cc1 (centres undefined)
- inhibition of growth at 10 µM (HCT-15): 6%
- inhibition of growth at 10 µM (PA-1): 36%
- inhibition in vivo at 50 mg/kg (Rattus norvegicus): 22%
- inhibition of growth at 10 µM (NCI-H522): 25%
- inhibition of growth at 10 µM (HepG2): 35%
- inhibition of growth at 10 µM (T47D): 15%

SMILES: CN(C)c1ccc(C2CC(c3ccncc3)=NN2)cc1 (centres undefined)
- inhibition of growth at 10 µM (HCT-15): 3%
- inhibition of growth at 10 µM (PA-1): 26%
- inhibition in vivo at 50 mg/kg (Rattus norvegicus): 0%
- inhibition of growth at 10 µM (NCI-H522): 28%
- inhibition of growth at 10 µM (HepG2): 29%
- inhibition of growth at 10 µM (T47D): 21%

SMILES: COc1ccc(OC)c(C2CC(c3ccccn3)=NN2c2ccccc2)c1 (centres undefined)
- inhibition of growth at 10 µM (HCT-15): 9%
- inhibition of growth at 10 µM (PA-1): 18%
- inhibition in vivo at 50 mg/kg (Rattus norvegicus): 27%
- inhibition of growth at 10 µM (NCI-H522): 16%
- inhibition of growth at 10 µM (HepG2): 20%
- inhibition of growth at 10 µM (T47D): 12%

SMILES: COc1ccc(OC)c(C2CC(c3cccnc3)=NN2c2ccccc2)c1 (centres undefined)
- inhibition of growth at 10 µM (HCT-15): 7%
- inhibition of growth at 10 µM (PA-1): 32%
- inhibition in vivo at 50 mg/kg (Rattus norvegicus): 24%
- inhibition of growth at 10 µM (NCI-H522): 32%
- inhibition of growth at 10 µM (HepG2): 26%
- inhibition of growth at 10 µM (T47D): 22%

SMILES: COc1ccc(OC)c(C2CC(c3ccncc3)=NN2c2ccccc2)c1 (centres undefined)
- inhibition of growth at 10 µM (HCT-15): 5%
- inhibition of growth at 10 µM (PA-1): 31%
- inhibition in vivo at 50 mg/kg (Rattus norvegicus): 18%
- inhibition of growth at 10 µM (NCI-H522): 29%
- inhibition of growth at 10 µM (HepG2): 32%
- inhibition of growth at 10 µM (T47D): 37%

SMILES: CN(C)c1ccc(C2CC(c3ccccn3)=NN2c2ccccc2)cc1 (centres undefined)
- inhibition of growth at 10 µM (HCT-15): 12%
- inhibition of growth at 10 µM (PA-1): 16%
- inhibition in vivo at 50 mg/kg (Rattus norvegicus): 35%
- inhibition of growth at 10 µM (NCI-H522): 26%
- inhibition of growth at 10 µM (HepG2): 24%
- inhibition of growth at 10 µM (T47D): 41%

SMILES: CN(C)c1ccc(C2CC(c3cccnc3)=NN2c2ccccc2)cc1 (centres undefined)
- inhibition of growth at 10 µM (HCT-15): 1%
- inhibition of growth at 10 µM (PA-1): 20%
- inhibition in vivo at 50 mg/kg (Rattus norvegicus): 34%
- inhibition of growth at 10 µM (NCI-H522): 20%
- inhibition of growth at 10 µM (HepG2): 32%
- inhibition of growth at 10 µM (T47D): 33%

SMILES: C[C@@H]1C[C@@H]([C@H](O)CC2CC(=O)NC(=O)C2)C(=O)[C@@H](C)C1 [CYCLOHEXIMIDE]
- inhibition of growth at 10 µM (HCT-15): 3%
- inhibition of growth at 10 µM (PA-1): 51%
- inhibition of growth at 10 µM (NCI-H522): 13%
- inhibition of growth at 10 µM (HepG2): 5%
- inhibition of growth at 10 µM (T47D): 9%

SMILES: O=P1(N(CCCl)CCCl)NCCCO1 (centres undefined) [CYCLOPHOSPHAMIDE ANHYDROUS]
- inhibition of growth at 10 µM (HCT-15): 5%
- inhibition of growth at 10 µM (PA-1): 4%
- inhibition of growth at 10 µM (NCI-H522): 4%
- inhibition of growth at 10 µM (HepG2): 14%
- inhibition of growth at 10 µM (T47D): 18%

SMILES: O=c1[nH]cc(F)c(=O)[nH]1 [FLUOROURACIL]
- inhibition of growth at 10 µM (HCT-15): 8%
- inhibition of growth at 10 µM (PA-1): 10%
- inhibition of growth at 10 µM (NCI-H522): 24%
- inhibition of growth at 10 µM (HepG2): 18%
- inhibition of growth at 10 µM (T47D): 5%

SMILES: CC(C)Cc1ccc(C(C)C(=O)O)cc1 (centres undefined) [IBUPROFEN]
- inhibition in vivo at 50 mg/kg (Rattus norvegicus): 39%

Reference: ChEMBL document CHEMBL3045644, “Synthesis anti-inflammatory and anticancer activity evaluation of some pyrazole and oxadiazole derivatives” (2012)
